Experimental data reported in patent US11071788B2, “Antibody drug conjugates of kinesin spindel protein (KSP) inhibitors with antiB7H3-antibodies” (BAYER PHARMA AKTIENGESELLSCHAFT, priority 2015, dated 2021).
Structures can show the parent of a compound that is named as a salt.

Columns and labels:
NCI-H292 = assay: Cytotoxicity MTT assay, NCI-H292; assay type: cell-based, human
Source text: (§1) Table 2 below lists the IC50 values of representative working examples from the assay described and the corresponding cytotoxicity data (MTT assay).

KPL4 = assay: Cytotoxicity MTT assay, KPL4; assay type: cell-based
Source text: as §1

[1] = Homo sapiens, NCI-H292, MTT assay

With `CC(C)(C)[C@H](c1cc(-c2cc(F)ccc2F)cn1Cc1ccccc1)N(CC[C@H](N)C(=O)NCCNC(=O)CC[C@H](N)C(=O)O)C(=O)CO` [Example M18, N-[2-({(2S)-2-Amino-4-[{(1R)-1-[1-benzyl-4-(2,5-difluorophenyl)-1H-pyrrol-2-yl]-2,2-dimethylpropyl}(glycoloyl)amino]butanoyl}amino)ethyl]-L-glutamine/trifluoroacetic acid (1.1)] the IC50 (NCI-H292; [1]) was 35.5 nM.

For `CC(C)(C)[C@H](c1cc(-c2cc(F)ccc2F)cn1Cc1ccccc1)N(CCCN)C(=O)CO` [Example M9, N-(3-Aminopropyl)-N-{(1R)-1-[1-benzyl-4-(2,5-difluorophenyl)-1H-pyrrol-2-yl]-2,2-dimethylpropyl}-2-hydroxyacetamide], the IC50 (NCI-H292; Homo sapiens, NCI-H292) was 0.774 nM and the IC50 (KPL4; KPL4) was 0.257 nM.

In the case of `CC(C)(C)[C@H](c1cc(-c2cc(F)ccc2F)cn1Cc1ccccc1)N(CC[C@H](N)C(=O)NCCNC(=O)CNC(=O)CC(SC[C@H](N)C(=O)O)C(=O)O)C(=O)CO` (single isomer, unassigned) [Example M13], the IC50 (NCI-H292; [1]) is reported as 152 nM and the IC50 (KPL4; KPL4, MTT assay) is reported as 169 nM.

In the case of `CC(C)(C)[C@H](c1cc(-c2cc(F)ccc2F)cn1Cc1ccccc1)N(CC[C@H](N)C(=O)NCCNC(=O)CNC(=O)C(CC(=O)O)SC[C@H](N)C(=O)O)C(=O)CO` (mixture of isomers) [Example M27, 4-[(2-{[2-({(2S)-2-Amino-4-[{(1R)-1-[1-benzyl-4-(2,5-difluorophenyl)-1H-pyrrol-2-yl]-2,2-dimethylpropyl}(glycoloyl)amino]butanoyl}amino)ethyl]amino}-2-oxoethyl)amino]-3-{[(2R)-2-amino-2-carboxyethyl]sulfanyl}-4-oxobutanoic acid-trifluoroacetic acid (1:1)], the IC50 (NCI-H292; [1]) is reported as 276 nM.

`CC(C)(C)[C@H](c1cc(-c2cc(F)ccc2F)cn1Cc1ccccc1)N(CC[C@H](N)C(=O)NCCNC(=O)CNC(=O)C(CC(=O)O)SC[C@H](N)C(=O)O)C(=O)CO` (single isomer, unassigned) [Example M16] gave an IC50 (NCI-H292; [1]) of 143 nM and an IC50 (KPL4; KPL4, MTT assay) of 195 nM.

For `CC(C)(C)[C@H](c1cc(-c2cc(F)ccc2F)cn1Cc1ccccc1)N(CC[C@H](N)C(=O)NCCC(=O)NCCCC[C@H](N)C(=O)O)C(=O)CO` [Example M19, N^6—(N-{(2S)-2-Amino-4-[{(1R)-1-[1-benzyl-4-(2,5-difluorophenyl)-1H-pyrrol-2-yl]-2,2-dimethylpropyl}(glycoloyl)amino]butanoyl}-beta-alanyl)-L-lysine/trifluoroacetic acid (1:1)], the IC50 (NCI-H292; [1]) was 121 nM.

In the case of `CC(C)(C)[C@H](c1cc(-c2cc(F)ccc2F)cn1Cc1ccccc1)N(CC[C@H](N)C(=O)NCCNC(=O)CNC(=O)CC(SC[C@H](N)C(=O)O)C(=O)O)C(=O)CO` (single isomer, unassigned) [Example M14], the IC50 (NCI-H292; MTT assay) is reported as 174 nM and the IC50 (KPL4; MTT assay) is reported as 182 nM.

For `CC(C)(C)[C@H](c1cc(-c2cc(F)ccc2F)cn1Cc1ccccc1)N(CC[C@H](N)C(=O)NCCNC(=O)CN1C(=O)CC(SC[C@H](N)C(=O)O)C1=O)C(=O)CO` (stereo partly drawn) [Example M1, S-[1-(2-{[2-({(2S)-2-Amino-4-[{(1R)-1-[1-benzyl-4-(2,5-difluorophenyl)-1H-pyrrol-2-yl]-2,2-dimethylpropyl}(glycoloyl)amino]butanoyl}amino)ethyl]amino}-2-oxoethyl)-2,5-dioxopyrrolidin-3-yl]-L-cysteine/trifluoroacetic acid (1:1)], the IC50 (NCI-H292; [1]) was 500 nM and the IC50 (KPL4; KPL4, MTT assay) was 500 nM.

`CC(C)(C)[C@H](c1cc(-c2cc(F)ccc2F)cn1Cc1ccccc1)N(CCCN)C(=O)CSC[C@H](NC(=O)CCC(=O)O)C(=O)O` [Example M12, 4-{[(1R)-2-({2-[(3-Aminopropyl) {(1R)-1-[1-benzyl-4-(2,5-difluorophenyl)-1H-pyrrol-2-yl]-2,2-dimethylpropyl}amino]-2-oxoethyl}sulphanyl)-1-carboxyethyl]amino}-4-oxobutanoic acid/trifluoroacetic acid (1:1)] showed an IC50 (NCI-H292; [1]) of 33 nM.

`CC(C)(C)[C@H](c1cc(-c2cc(F)ccc2F)cn1Cc1ccccc1)N(CC[C@H](N)C(=O)NCCC(=O)N[C@H](CCC(=O)O)C(=O)O)C(=O)CO` [Example M24, N-{(2S)-2-Amino-4-[{(1R)-1-[1-benzyl-4-(2,5-difluorophenyl)-1H-pyrrol-2-yl]-2,2-dimethylpropyl}(glycoloyl)amino]butanoyl}-beta-alanyl-D-glutamic acid-trifluoroacetic acid] showed an IC50 (NCI-H292; [1]) of 167 nM and an IC50 (KPL4; KPL4, MTT assay) of 500 nM.

`CC(C)(C)[C@H](c1cc(-c2cc(F)ccc2F)cn1Cc1ccccc1)N(CC[C@H](N)C(=O)O)C(=O)CO` [Example M17, (2S)-2-Amino-4-[{(1R)-1-[1-benzyl-4-(2,5-difluorophenyl)-1H-pyrrol-2-yl]-2,2-dimethylpropyl}(glycoloyl)amino]butanoic acid hydrochloride (1.1)] gave an IC50 (NCI-H292; [1]) of 7.35 nM.

In the case of `CC(C)(C)[C@H](c1cc(-c2cc(F)ccc2F)cn1Cc1ccccc1)N(CC[C@H](N)C(=O)NCCOCCN1C(=O)CC(SC[C@H](N)C(=O)O)C1=O)C(=O)CO` (stereo partly drawn) [Example M4, S-(1-{2-[2-({(2S)-2-Amino-4-[{(1R)-1-[1-benzyl-4-(2,5-difluorophenyl)-1H-pyrrol-2-yl]-2,2-dimethylpropyl}(glycoloyl)amino]butanoyl}amino)ethoxy]ethyl}-2,5-dioxopyrrolidin-3-yl)-L-cysteine/trifluoroacetic acid (1:1)], the IC50 (NCI-H292; [1]) is reported as 44.3 nM and the IC50 (KPL4; KPL4, MTT assay) is reported as 176 nM.

With `CC(C)(C)[C@H](c1cc(-c2cc(F)ccc2F)cn1Cc1ccccc1)N(CC[C@H](N)C(=O)NCCC(=O)N[C@@H](CCC(=O)O)C(=O)O)C(=O)CO` [Example M23, N-{(2S)-2-Amino-4-[{(1R)-1-[1-benzyl-4-(2,5-difluorophenyl)-1H-pyrrol-2-yl]-2,2-dimethylpropyl}(glycoloyl)amino]butanoyl}-beta-alanyl-L-glutamic acid-trifluoroacetic acid (1.1)] the IC50 (NCI-H292; [1]) was 500 nM and the IC50 (KPL4; KPL4, MTT assay) was 500 nM.

In the case of `CC(C)(C)[C@H](c1cc(-c2cc(F)ccc2F)cn1Cc1ccccc1)N(CC[C@H](N)C(=O)NCCNC(=O)CSC[C@H](N)C(=O)O)C(=O)CO` [Example M7, S-(2-{[2-({(2S)-2-Amino-4-[{(1R)-1-[1-benzyl-4-(2,5-difluorophenyl)-1H-pyrrol-2-yl]-2,2-dimethylpropyl}(glycoloyl)amino]butanoyl}amino)ethyl]amino}-2-oxoethyl)-L-cysteine/trifluoroacetic acid (1:1)], the IC50 (NCI-H292; [1]) is reported as 22.2 nM and the IC50 (KPL4; KPL4, MTT assay) is reported as 92.5 nM.

Compound `CC(C)(C)[C@H](c1cc(-c2cc(F)ccc2F)cn1Cc1ccccc1)N(CCCN)C(=O)CSC[C@H](NC(=O)CCOCCOCCOCCOCCNC(=O)CNC(=O)CC(SC[C@H](N)C(=O)O)C(=O)O)C(=O)O` (stereo partly drawn) [Example M20, (1R,4R,27R,33R)-1-Amino-32-(3-aminopropyl)-33-[1-benzyl-4-(2,5-difluorophenyl)-1H-pyrrol-2-yl]-34,34-dimethyl-6,9,25,31-tetraoxo-13,16,19,22-tetraoxa-3,29-dithia-7,10,26,32-tetraazapentatriacontane-1,4,27-tricarboxylic acid/trifluoroacetic acid (1:2)] has an IC50 (NCI-H292; [1]) of 149 nM and an IC50 (KPL4; KPL4, MTT assay) of 213 nM.

In the case of `CC(C)(C)[C@H](c1cc(-c2cc(F)ccc2F)cn1Cc1ccccc1)N(CCCN)C(=O)CSC[C@H](N)C(=O)O` [Example M11, S-{2-[(3-Aminopropyl){(1R)-1-[1-benzyl-4-(2,5-difluorophenyl)-1H-pyrrol-2-yl]-2,2-dimethyl-propyl}amino]-2-oxoethyl}-L-cysteine/trifluoroacetic acid (1:2)], the IC50 (NCI-H292; [1]) is reported as 0.0432 nM.
